Data taken from article PMC10820097, “Benzofuran Derivatives from Cortex Mori Radicis and Their Cholinesterase-Inhibitory Activity” (Molecules, 2024).
Values joined by “and” are separate entries in the source; they are usually repeats but may differ in a detail not shown here. Equal values may be shown once. Read-outs that look alike come from different tables or passages of the source.

Assays:
[1] = target: T1, BChE (EC 3.1.1.8) (Equus caballus, UniProt P81908); assay: BChE inhibitory activity assay (modified Ellman's method); type: biochemical; conditions: for IC50: sample concentration that led to 50% enzyme activity loss, mean ± SD, triplicate; for BChE inhibitory effect, in words: up to 100 μM where stated
T1 construct: BChE (EC 3.1.1.8, from equine serum); purchased Aladdin Industrial Co., Ltd. (Shanghai, China); host or cells: equine serum (natural source)
T1 sequence (P81908 whole entry): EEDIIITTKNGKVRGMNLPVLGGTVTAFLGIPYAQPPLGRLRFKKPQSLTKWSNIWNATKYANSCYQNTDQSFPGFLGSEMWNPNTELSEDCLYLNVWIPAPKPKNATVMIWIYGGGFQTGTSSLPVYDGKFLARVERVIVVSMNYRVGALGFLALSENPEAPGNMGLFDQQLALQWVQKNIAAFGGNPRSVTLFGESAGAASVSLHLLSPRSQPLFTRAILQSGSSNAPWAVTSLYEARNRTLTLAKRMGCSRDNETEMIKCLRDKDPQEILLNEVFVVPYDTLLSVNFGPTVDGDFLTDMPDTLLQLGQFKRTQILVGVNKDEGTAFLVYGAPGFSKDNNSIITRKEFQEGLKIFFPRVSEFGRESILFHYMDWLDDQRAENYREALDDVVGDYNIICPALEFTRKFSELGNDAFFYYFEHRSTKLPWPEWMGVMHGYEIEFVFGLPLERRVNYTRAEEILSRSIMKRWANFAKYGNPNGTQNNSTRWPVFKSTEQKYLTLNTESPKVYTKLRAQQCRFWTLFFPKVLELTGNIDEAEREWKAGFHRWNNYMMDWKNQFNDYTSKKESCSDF
Description: (§1) AChE (EC 3.1.1.7, from electric eel), BChE (EC 3.1.1.8, from equine serum), acetylthiocholine iodide (ATCI), butyrylthiocholine iodide (BTCI), and 5,5′-dithiobis (2-nitrobenzoic acid) (DTNB) were purchased from Aladdin Industrial Co., Ltd. (Shanghai, China).
(§2) Briefly, AChE and BChE solutions (0.2 units/mL) and ATCI, BTCI, and DTNB solutions (10 mM) were prepared in PBS solution (0.1 M, pH 8.0). The test compound stock solutions (10 mM) were made using methanol, and five different concentrations of each compound were prepared by doubling the dilution with methanol to determine the half-maximal inhibitory concentration (IC50). Firstly, 160 μL of PBS, 2 μL of the test samples, 20 μL of AChE or BChE, and 10 μL of DTNB were mixed and preincubated at 37 °C for 10 min. Thereafter, 10 μL of ATCI or BTCI was added to initiate the reaction, which was incubated at 37 °C for 25 min. The absorbance was measured at 412 nm during incubation. The inhibition rate was calculated using the following formula: IR% = [(Ac − As)]/(Ac − Ab] × 100%, where Ab denotes the absorbance of the blank control (20 μL of water replacing the enzyme solution), Ac represents the absorbance of the control (2 μL of methanol replacing the sample solutions), and As denotes the absorbance of the sample. All of the tests for each sample were performed in triplicate. The IC50 value of each compound was obtained by plotting the inhibition rate against the logarithm of its concentration, and the data were expressed as the mean ± SD.

[2] = target: T2, AChE (EC 3.1.1.7) (Electrophorus electricus, UniProt O42275); assay: biochemical; type: biochemical; conditions: for IC50: sample concentration that led to 50% enzyme activity loss, mean ± SD, triplicate
T2 construct: AChE (EC 3.1.1.7, from electric eel); purchased Aladdin Industrial Co., Ltd. (Shanghai, China); host or cells: electric eel (natural source)
T2 sequence (O42275 24-633): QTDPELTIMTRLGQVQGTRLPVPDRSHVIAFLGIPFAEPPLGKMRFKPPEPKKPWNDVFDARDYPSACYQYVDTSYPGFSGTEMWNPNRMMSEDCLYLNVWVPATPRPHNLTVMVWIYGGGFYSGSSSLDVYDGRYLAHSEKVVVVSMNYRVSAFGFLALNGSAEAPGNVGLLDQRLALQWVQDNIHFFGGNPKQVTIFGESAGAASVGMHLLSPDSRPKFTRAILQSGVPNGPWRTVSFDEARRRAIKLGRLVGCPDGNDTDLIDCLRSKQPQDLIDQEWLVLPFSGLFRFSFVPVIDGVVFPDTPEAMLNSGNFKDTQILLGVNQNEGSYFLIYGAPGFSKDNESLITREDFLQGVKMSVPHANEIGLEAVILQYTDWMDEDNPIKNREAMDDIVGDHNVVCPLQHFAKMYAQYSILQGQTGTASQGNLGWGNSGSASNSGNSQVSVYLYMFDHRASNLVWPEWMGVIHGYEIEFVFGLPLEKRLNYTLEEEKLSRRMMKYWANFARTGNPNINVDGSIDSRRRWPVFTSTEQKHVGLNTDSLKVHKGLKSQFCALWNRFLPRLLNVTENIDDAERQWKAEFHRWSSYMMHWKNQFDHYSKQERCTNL
Description: as §1, §2

[3] = target: T1, BChE (EC 3.1.1.8); assay: Kinetic study of BChE inhibition (Lineweaver–Burk and secondary plots); type: biochemical; conditions: for BChE Inhibition Type: Lineweaver–Burk plots; for BChE αKi: from secondary plot of 1/Vmax vs [I], binding to ES complex; for BChE α (thermodynamic cooperativity factor): αKi/Ki
Description: To determine the inhibition modes of the compounds, enzyme kinetic studies were carried out for the structurally representative inhibitors, namely, compounds 1, 8, 9, 11, and 14. […] For this type of interaction, inhibitors can bind to the free enzyme (E) and the enzyme–substrate (ES) complex, forming EI and ESI complexes, respectively. The Ki and αKi values for the inhibitors were determined from the secondary plots of the slope (Km/Vm) and the vertical intercept (1/Vm) from the Lineweaver–Burk plot as functions of the inhibitor concentration, respectively (Figure S2 in Supplementary Materials), and the thermodynamic cooperativity factor α differed among the five structurally diverse inhibitors (Table 3).
as §1
Using the same protocol as the inhibitory activity assay, kinetic studies of BChE inhibition were performed with a series of concentrations of substrate BTCI, namely, 0.1, 0.2, 0.3, 0.4, and 0.5 mM or 0.2, 0.4, 0.5, 0.6, and 0.7 mM. Three concentrations of each test compound were selected according to the IC50 value. The detection of absorbance was conducted during the enzymatic reaction at 10 min, 20 min, and 25 min. The change in absorbance per minute was referred to as the velocity of the enzyme-promoting reaction. The Lineweaver–Burk plots (double-reciprocal plots) were created by plotting the reciprocal of velocity (1/V) against the reciprocal of BTCI concentration (1/[BTCI]) for a compound at three concentrations, and the kinetic parameters, Michaelis constant (Km), and maximum velocity (Vmax) obtained therefrom were used to check the inhibition modes. The value of the inhibitor constant Ki was determined by referencing the secondary plot of the slope of the double-reciprocal lines (from the Lineweaver–Burk plot) as a function of [I], and the x intercept was equal to −Ki. Another secondary plot was fitted by 1/Vmax as a function of the inhibitor concentration [I], and the value of −αKi can be determined to be the x intercept therefrom.

[4] = cis-trans photoisomerization under UV exposure (HPLC detection); type: physicochemical; conditions: UV exposure at 254 and 365 nm
From the text: The NMR data of 6 (Table 1 and Table 2) were identical to those of nigranol A previously isolated from Morus nigra Linn. The Δ7,8 double bond of nigranol A was formerly determined to be a Z-configuration according to the relatively large coupling constant (12.8 Hz) between H-8 and H-9, which is not applicable and convincing in view of the freely rotating single bond between C-8 and C-9. […] Fortunately, the crystals of compounds 1 and 6 were obtained, and single-crystal X-ray diffraction (XRD) analyses were conducted to determine the configuration of the Δ7,8 double bond. As a result, the isobutene moiety (C-9) and the carbonyl group (C-13), the larger substituent groups for C-8 and C-7, respectively, existed in cis- and trans-conformations in compounds 1 and 6, respectively (Figure 3). Therefore, compound 1 was determined to be (Z)-6-hydroxy-3-(3-methylbut-2-en-1-ylidene)benzofuran-2(3H)-one and named albaphenol A, while nigranol A (6) was revised as (E)-6-hydroxy-3-(3-methylbut-2-en-1-ylidene)benzofuran-2(3H)-one. […] Due to the cis–trans tautomerism also taking place slowly under natural light, the samples were stored in a 4 °C refrigerator under dark conditions, and the crystallizations of the two compounds were induced in nearly saturated methanol solution under the same conditions.

[5] = system: BChE; design: method as in PMID 29786669; conditions: read-out: BChE IC50 in previous research; cited from earlier work
[6] = system: BChE; design: method as in PMID 31459768; conditions: cited from earlier work
[7] = from secondary plot of slope of Lineweaver–Burk lines vs [I], binding to free enzyme, read-out: BChE Ki

CC(C)=C/C=C1\C(=O)Oc2cc(O)ccc21 [Compound 1, (Z)-6-hydroxy-3-(3-methylbut-2-en-1-ylidene)benzofuran-2(3H)-one]
IC50 ([1]; read-out: IC50 BChE): 45.5 ± 5.9 µM | IC50 [2]: > 100 µM | BChE Inhibition Type [3]: Mixed uncompetitive | BChE αKi [3]: 43.0 µM | Ki [3, 7]: 93.4 µM | BChE α (thermodynamic cooperativity factor) [3]: 0.46 | time to almost reach equilibrium of cis-trans photoisomerization (1 and 6, ratio approximately 1:1) [4]: ≤ 30 min

COC(=O)/C(=C/C=C(C)C)c1ccc(O)cc1O [Compound 2, albaphenol B]
IC50 ([1]; read-out: IC50 BChE): > 100 µM | IC50 [2]: > 100 µM

COC(=O)C(CC=C(C)C)c1ccc(O)cc1O (centres unmarked) [Compound 3, methyl 2-(2,4-dihydroxyphenyl)-5-methylhex-4-enoate]
IC50 ([1]; read-out: IC50 BChE): > 100 µM | IC50 [2]: > 100 µM

CCOC(=O)C(CC=C(C)C)c1ccc(O)cc1O (centres unmarked) [Compound 4, ethyl 2-(2,4-dihydroxyphenyl)-5-methylhex-4-enoate]
IC50 ([1]; read-out: IC50 BChE): 61 ± 3.4 µM | IC50 [2]: > 100 µM

CC(C)(O)CCC(=O)c1ccc(O)cc1O [Compound 5, 1-(2,4-dihydroxyphenyl)-4-hydroxy-4-methylpentan-1-one]
IC50 ([1]; read-out: IC50 BChE): > 100 µM | IC50 [2]: > 100 µM

CC(C)=C/C=C1/C(=O)Oc2cc(O)ccc21 [Compound 6, (E)-6-hydroxy-3-(3-methylbut-2-en-1-ylidene)benzofuran-2(3H)-one]
IC50 ([1]; read-out: IC50 BChE): 94.8 µM and > 100 µM | BChE inhibitory effect, in words [1]: no obvious inhibition | IC50 [2]: > 100 µM | AChE inhibitory effect, in words ([2]; up to 100 μM where stated): no obvious inhibition | time to almost reach equilibrium of cis-trans photoisomerization (1 and 6, ratio approximately 1:1) [4]: ≤ 30 min

COc1cc(O)cc(-c2cc3cc(O)c(OC)cc3o2)c1 [Compound 7, moracin B]
IC50 ([1]; read-out: IC50 BChE): > 100 µM | BChE inhibitory effect, in words [1]: did not inhibit | IC50 [2]: > 100 µM

CC(C)=CCc1c(O)cc(-c2cc3ccc(O)cc3o2)cc1O [Compound 8, moracin C]
IC50 ([1]; read-out: IC50 BChE): 27.9 ± 3.5 µM | IC50 [2]: > 100 µM | BChE Inhibition Type [3]: Mixed competitive | BChE αKi [3]: 71.1 µM | Ki [3, 7]: 12.8 µM | BChE α (thermodynamic cooperativity factor) [3]: 5.55

CC1(C)C=Cc2c(O)cc(-c3cc4ccc(O)cc4o3)cc2O1 [Compound 9, moracin D]
IC50 ([1]; IC50 BChE): 9.5 ± 3.2 µM | IC50 [2]: 81.2 ± 3.9 µM | Ki [3]: 5.7 µM | BChE Inhibition Type [3]: Mixed competitive | BChE αKi [3]: 25.2 µM | BChE α (thermodynamic cooperativity factor) [3]: 4.42

Oc1cc(O)cc(-c2cc3ccc(O)cc3o2)c1 [Compound 10, moracin M]
IC50 [5]: 38.1 µM | IC50 ([1]; read-out: IC50 BChE): > 100 µM | BChE inhibitory effect, in words [1]: did not inhibit | IC50 [2]: > 100 µM

CC(C)=CCc1cc2cc(-c3cc(O)cc(O)c3)oc2cc1O [Compound 11, moracin N]
IC50 ([1]; read-out: IC50 BChE): 13.5 ± 1.6 µM | IC50 [2]: 40.5 ± 4.7 µM | BChE Inhibition Type [3]: Noncompetitive | BChE αKi [3]: 13.3 µM | Ki [3, 7]: 12.7 µM | BChE α (thermodynamic cooperativity factor) [3]: 1.05

CC(C)(O)C1Cc2cc3cc(-c4cc(O)cc(O)c4)oc3cc2O1 (centres unmarked) [Compound 12, moracin O]
IC50 [5]: 28.2 µM | BChE inhibitory effect, in words [1]: neither moracin O (12) nor P (13) exhibited a significant inhibitory effect

CC1(C)Oc2cc3oc(-c4cc(O)cc(O)c4)cc3cc2C[C@H]1O [Compound 13, moracin P]
IC50 [5]: 38 µM | BChE inhibitory effect, in words [1]: neither moracin O (12) nor P (13) exhibited a significant inhibitory effect

CC(C)=CCc1c(O)cc2c(c1-c1cc3ccc(O)cc3o1)C=CC(C)(C)O2 [Compound 14, cathafuran C]
selective index (AChE IC50/BChE IC50 ratio) [1]: over 38 | IC50 ([1]; read-out: IC50 BChE): 2.6 ± 0.2 µM | IC50 [2]: > 100 µM | BChE Inhibition Type [3]: Competitive | BChE αKi [3]: 22.7 µM | Ki [3, 7]: 1.7 µM | BChE α (thermodynamic cooperativity factor) [3]: 13.35

CC(C)=CCc1c(O)cc(O)c(CC=C(C)C)c1-c1cc2ccc(O)cc2o1 [Compound 15, mulberrofuran V]
IC50 ([1]; read-out: IC50 BChE): 27.1 ± 6.8 µM | IC50 [2]: > 100 µM

COc1cc(O)c(CC=C(C)C)c(-c2cc3ccc(O)cc3o2)c1CC=C(C)C [Compound 16, mulberrofuran N]
IC50 ([1]; read-out: IC50 BChE): 32.8 ± 4.2 µM | IC50 [2]: > 100 µM

CC(C)=CCCC1(C)C=Cc2c(ccc3cc(-c4cc(O)cc(O)c4CC=C(C)C)oc23)O1 (centres unmarked) [mulberrofuran D2]
IC50 [6]: 1.51 µM

CC(C)=CCC/C(C)=C/Cc1c(O)ccc2cc(-c3cc(O)cc(O)c3CC=C(C)C)oc12 [mulberrofuran D]
IC50 [6]: 6.12 µM
